This note sets out measurements from patent US11034650B2, “Compounds useful for treating a Mannheimia haemolytica or Histophilus somni infection” (Intervet Inc., priority 2016, dated 2021).

Common to all, as to format: cell-based
Test [1] deals with Pasteurella multocida PM 12080 (IV102277-0093, BRD field isolate). The test can be described thus: MIC, broth-microdilution (CLSI VET01-A4), strain PM 12080. Conditions: Pasteurella multocida strain PM 12080, broth-microdilution; unit assumed. The method in brief:
(§1)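 Compounds were serially diluted twofold in microdilution trays. Growth was judged by eye, and the MIC was the lowest concentration showing no turbidity. Results were interpreted per CLSI VET01-S3.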

The subject of test [2] is Mannheimia haemolytica MH 6357 (M7/2, reference strain, cattle infection strain). Kind of test: MIC, broth-microdilution (CLSI VET01-A4), strain MH 6357. The following applies: Mannheimia haemolytica strain MH 6357, broth-microdilution; unit assumed. The essentials:
as §1

The test system of test [3] is Mannheimia haemolytica MH 10720 (154, BRD field isolate). The test can be described thus: MIC, broth-microdilution (CLSI VET01-A4), strain MH 10720. The following applies: Mannheimia haemolytica strain MH 10720, broth-microdilution; unit assumed. The method in brief: as §1
The subject of test [4] is Mannheimia haemolytica MH 12587 (1071, BRD field isolate, macrolide-resistance: erm+, E+). Kind of test: MIC, broth-microdilution (CLSI VET01-A4), strain MH 12587. The following applies: Mannheimia haemolytica strain MH 12587, broth-microdilution; unit assumed. The essentials:
as §1

The subject of test [5] is Mannheimia haemolytica MH 6374 (ATCC 33396, reference strain). Kind of test: MIC, broth-microdilution (CLSI VET01-A4), strain MH 6374. Conditions: Mannheimia haemolytica strain MH 6374, broth-microdilution; unit assumed. The essentials:
as §1

Test [6] concerns Pasteurella multocida PM 6391 (ATCC 43137, reference strain). The test can be described thus: MIC, broth-microdilution (CLSI VET01-A4), strain PM 6391. The following applies: Pasteurella multocida strain PM 6391, broth-microdilution; unit assumed. The method in brief: as §1
Test [7] concerns Pasteurella multocida PM 6267 (P 2225 (L386), reference strain, mouse infection strain). Kind of test: MIC, broth-microdilution (CLSI VET01-A4), strain PM 6267. The following applies: Pasteurella multocida strain PM 6267, broth-microdilution; unit assumed. The method in brief:
as §1

Test [8] has as its system Mannheimia haemolytica MH 13093 (XB0472-6014.1, BRD field isolate). Kind of test: MIC, broth-microdilution (CLSI VET01-A4), strain MH 13093. The following applies: Mannheimia haemolytica strain MH 13093, broth-microdilution; unit assumed. The method in brief: as §1
Test [9] relates to Mannheimia haemolytica MH 13065 (XB0446-6003.9, BRD field isolate). The test can be described thus: MIC, broth-microdilution (CLSI VET01-A4), strain MH 13065. Conditions: Mannheimia haemolytica strain MH 13065, broth-microdilution; unit assumed. The essentials: as §1
Test [10] has as its system Pasteurella multocida PM 10775 (080130003051, BRD field isolate). The test can be described thus: MIC, broth-microdilution (CLSI VET01-A4), strain PM 10775. Conditions: Pasteurella multocida strain PM 10775, broth-microdilution; unit assumed. The essentials:
as §1

Values after ≈ are worked out from the molar mass of the structure shown.

In [1], `CC[C@H](C)[C@H](NC(=O)c1ccc(C#Cc2ccc(CNC3CCCC3)cc2)cc1)C(=O)NO` [Compound 196] showed an MIC PM 12080 of 0.4 µg/mL (≈ 0.894 µM). The MIC MH 6357 in test [2] came out at 6.3 µg/mL (≈ 14.1 µM). The molecule further yielded an MIC MH 10720 in test [3] of 1.6 µg/mL (≈ 3.57 µM). The molecule also came in with an MIC MH 12587 in [4] of 12.5 µg/mL (≈ 27.9 µM). Besides, the MIC MH 6374 in test [5] amounted to 12.5 µg/mL (≈ 27.9 µM). The same molecule registered an MIC PM 6391 in test [6] of 0.8 µg/mL (≈ 1.79 µM). The molecule further returned an MIC PM 6267 in [7] of 0.2 µg/mL (≈ 0.447 µM). Moreover, in test [8], the MIC MH 13093 came out at 12.5 µg/mL (≈ 27.9 µM). The molecule also yielded an MIC MH 13065 in test [9] of 6.3 µg/mL (≈ 14.1 µM). Moreover, the MIC PM 10775 in test [10] was ≤ 0.1 µg/mL.

Regarding `CC[C@H](C)[C@H](NC(=O)c1ccc(C#Cc2ccc(CNC3CCC3)cc2)cc1)C(=O)NO` [Compound 197], the MIC PM 12080 in test [1] is 0.2 µg/mL (≈ 0.461 µM). Further, the MIC MH 6357 in test [2] was 1.6 µg/mL (≈ 3.69 µM). Besides, the MIC MH 10720 in test [3] amounted to 0.4 µg/mL (≈ 0.923 µM). In test [4], this molecule came in with an MIC MH 12587 of 6.3 µg/mL (≈ 14.5 µM). In [5], this molecule came in with an MIC MH 6374 of 3.1 µg/mL (≈ 7.15 µM). The molecule further returned an MIC PM 6391 in test [6] of 0.4 µg/mL (≈ 0.923 µM). Further, the MIC PM 6267 in [7] was ≤ 0.1 µg/mL. Further, the MIC MH 13093 in test [8] was 3.1 µg/mL (≈ 7.15 µM). For the same molecule, the MIC MH 13065 in test [9] is 1.6 µg/mL (≈ 3.69 µM). Besides, the MIC PM 10775 in test [10] was ≤ 0.1 µg/mL.

In the case of `COCC(C)NCc1ccc(C#Cc2ccc(C(=O)N[C@H](C(=O)NO)C(C)C)cc2)cc1` (some centres unmarked) [Compound 198], the MIC PM 12080 in test [1] came out at 0.2 µg/mL (≈ 0.457 µM). In test [2], this molecule came in with an MIC MH 6357 of 3.1 µg/mL (≈ 7.09 µM). In test [3], this molecule yielded an MIC MH 10720 of 0.8 µg/mL (≈ 1.83 µM). In addition, the MIC MH 12587 in test [4] stood at 12.5 µg/mL (≈ 28.6 µM). In test [5], this molecule yielded an MIC MH 6374 of 6.3 µg/mL (≈ 14.4 µM). Besides, the MIC PM 6391 in [6] came out at 0.4 µg/mL (≈ 0.914 µM). In addition, in test [7], the MIC PM 6267 was ≤ 0.1 µg/mL. Also, the MIC MH 13093 in test [8] came to 6.3 µg/mL (≈ 14.4 µM). This molecule also yielded an MIC MH 13065 in [9] of 3.1 µg/mL (≈ 7.09 µM). Besides, the MIC PM 10775 in test [10] is ≤ 0.1 µg/mL.

`CC(C)[C@H](NC(=O)c1ccc(C#Cc2ccc(CNCc3nccs3)cc2)cc1)C(=O)NO` [Compound 199]: in test [1], the MIC PM 12080 is ≤ 0.1 µg/mL. The MIC MH 6357 in [2] came out at 0.2 µg/mL (≈ 0.432 µM). Further, the MIC MH 10720 in test [3] was ≤ 0.1 µg/mL. The MIC MH 12587 in test [4] amounted to 0.4 µg/mL (≈ 0.865 µM). In test [5], this molecule displayed an MIC MH 6374 of 0.4 µg/mL (≈ 0.865 µM). Besides, in test [6], the MIC PM 6391 is ≤ 0.1 µg/mL. Moreover, the MIC PM 6267 in test [7] was ≤ 0.1 µg/mL. Besides, the MIC MH 13093 in [8] is 0.4 µg/mL (≈ 0.865 µM). In test [9], the MIC MH 13065 came to 0.2 µg/mL (≈ 0.432 µM). Moreover, in test [10], the MIC PM 10775 is ≤ 0.1 µg/mL.

In turn, `CC(C)[C@H](NC(=O)c1ccc(C#Cc2ccc(CNCC3CCCO3)cc2)cc1)C(=O)NO` (some centres unmarked) [Compound 200] showed an MIC PM 12080 in [1] of 0.2 µg/mL (≈ 0.445 µM). This molecule also showed an MIC MH 6357 in test [2] of 6.3 µg/mL (≈ 14 µM). Also, the MIC MH 10720 in test [3] was 0.8 µg/mL (≈ 1.78 µM). In test [4], this molecule gave an MIC MH 12587 of 6.3 µg/mL (≈ 14 µM). Further, the MIC MH 6374 in test [5] is 3.1 µg/mL (≈ 6.9 µM). Moreover, the MIC PM 6391 in test [6] was 0.2 µg/mL (≈ 0.445 µM). The MIC PM 6267 in [7] is ≤ 0.1 µg/mL. In addition, the MIC MH 13093 in test [8] was 3.1 µg/mL (≈ 6.9 µM). The same molecule had an MIC MH 13065 in test [9] of 1.6 µg/mL (≈ 3.56 µM). The MIC PM 10775 in test [10] was ≤ 0.1 µg/mL.

In test [1], `CCNCc1ccc(C#Cc2ccc(C(=O)N[C@H](C(=O)NO)C(C)C)cc2)cc1` [Compound 201] showed an MIC PM 12080 of 0.4 µg/mL (≈ 1.02 µM). Besides, the MIC MH 6357 in [2] is 12.5 µg/mL (≈ 31.8 µM). In [3], this molecule had an MIC MH 10720 of 3.1 µg/mL (≈ 7.88 µM). The molecule further displayed an MIC MH 12587 in [4] of 12.5 µg/mL (≈ 31.8 µM). In addition, the MIC MH 6374 in [5] came to 6.3 µg/mL (≈ 16 µM). Also, the MIC PM 6391 in test [6] was found to be 0.8 µg/mL (≈ 2.03 µM). For the same molecule, in test [7], the MIC PM 6267 turned out to be 0.4 µg/mL (≈ 1.02 µM). The MIC MH 13093 in test [8] worked out at 6.3 µg/mL (≈ 16 µM). The molecule also had an MIC MH 13065 in test [9] of 6.3 µg/mL (≈ 16 µM). The MIC PM 10775 in test [10] was ≤ 0.1 µg/mL.

`COCCCNCc1ccc(C#Cc2ccc(C(=O)N[C@H](C(=O)NO)C(C)C)cc2)cc1` [Compound 205] had an MIC PM 12080 in [1] of 0.4 µg/mL (≈ 0.914 µM). In test [2], this molecule showed an MIC MH 6357 of 1.6 µg/mL (≈ 3.66 µM). In [3], this molecule returned an MIC MH 10720 of 0.8 µg/mL (≈ 1.83 µM). Moreover, in test [4], the MIC MH 12587 came to 6.3 µg/mL (≈ 14.4 µM). The molecule further yielded an MIC MH 6374 in test [5] of 3.1 µg/mL (≈ 7.09 µM). In [6], this molecule gave an MIC PM 6391 of 0.4 µg/mL (≈ 0.914 µM). In test [7], this molecule came in with an MIC PM 6267 of 0.2 µg/mL (≈ 0.457 µM). In addition, the MIC MH 13093 in test [8] worked out at 3.1 µg/mL (≈ 7.09 µM). In [9], this molecule gave an MIC MH 13065 of 1.6 µg/mL (≈ 3.66 µM). The MIC PM 10775 in test [10] was ≤ 0.1 µg/mL.

As to `CCCNCc1ccc(C#Cc2ccc(C(=O)N[C@H](C(=O)NO)C(C)C)cc2)cc1` [Compound 206], the MIC PM 12080 in [1] was 0.2 µg/mL (≈ 0.491 µM). Further, the MIC MH 6357 in [2] is 3.1 µg/mL (≈ 7.61 µM). In [3], this molecule gave an MIC MH 10720 of 0.8 µg/mL (≈ 1.96 µM). Besides, in [4], the MIC MH 12587 amounted to 6.3 µg/mL (≈ 15.5 µM). For the same molecule, in test [5], the MIC MH 6374 is 3.1 µg/mL (≈ 7.61 µM). The molecule further displayed an MIC PM 6391 in test [6] of 0.4 µg/mL (≈ 0.982 µM). Also, the MIC PM 6267 in [7] was ≤ 0.1 µg/mL. In test [8], this molecule returned an MIC MH 13093 of 6.3 µg/mL (≈ 15.5 µM). Besides, the MIC MH 13065 in [9] worked out at 3.1 µg/mL (≈ 7.61 µM). The MIC PM 10775 in [10] is ≤ 0.1 µg/mL.
